Reference: paper PMC10176470, “Engaging a Non-catalytic Cysteine Residue Drives Potent and Selective Inhibition of Caspase-6” (Journal of the American Chemical Society, 2023)

Columns and labels:
Assay in all cases: SILAC proteomics / in-gel fluorescence, competition of probe 13-t labeling by 3a
[1] = target: T1, proteins of HEK293T cells transiently overexpressing caspase-6 (Homo sapiens, UniProt Q8WUM4)
T1 sequence (Q8WUM4 1-868): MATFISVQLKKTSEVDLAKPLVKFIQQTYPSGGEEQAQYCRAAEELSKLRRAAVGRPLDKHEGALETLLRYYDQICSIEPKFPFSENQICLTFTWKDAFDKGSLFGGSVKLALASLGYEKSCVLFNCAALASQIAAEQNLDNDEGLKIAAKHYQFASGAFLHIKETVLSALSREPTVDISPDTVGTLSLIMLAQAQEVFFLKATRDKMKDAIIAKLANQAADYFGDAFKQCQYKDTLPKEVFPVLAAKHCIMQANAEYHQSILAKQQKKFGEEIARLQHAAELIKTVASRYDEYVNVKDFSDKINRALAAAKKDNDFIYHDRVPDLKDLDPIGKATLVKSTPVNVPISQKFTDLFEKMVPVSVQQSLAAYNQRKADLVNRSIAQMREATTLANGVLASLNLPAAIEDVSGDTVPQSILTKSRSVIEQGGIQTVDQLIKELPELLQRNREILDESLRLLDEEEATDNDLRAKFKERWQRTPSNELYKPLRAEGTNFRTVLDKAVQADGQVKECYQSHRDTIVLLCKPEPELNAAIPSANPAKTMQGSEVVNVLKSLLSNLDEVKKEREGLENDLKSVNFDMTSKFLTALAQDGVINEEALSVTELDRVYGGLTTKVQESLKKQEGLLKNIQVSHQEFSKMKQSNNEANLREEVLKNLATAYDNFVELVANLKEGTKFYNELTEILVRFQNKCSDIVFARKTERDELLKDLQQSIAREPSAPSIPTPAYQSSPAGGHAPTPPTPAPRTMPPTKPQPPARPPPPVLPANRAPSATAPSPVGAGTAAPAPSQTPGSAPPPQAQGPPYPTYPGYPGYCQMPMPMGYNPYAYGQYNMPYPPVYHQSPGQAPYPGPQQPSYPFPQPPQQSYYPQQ

[2] = target: proteins of HEK293T cells transiently overexpressing caspase-6 (Homo sapiens, UniProt O43143); details: Comp; protein DHX15 O43143
[3] = target: T2, proteins of HEK293T cells transiently overexpressing caspase-6 (Homo sapiens, UniProt P30041); details: Comp; protein PRDX6 P30041
T2 sequence (P30041 1-224): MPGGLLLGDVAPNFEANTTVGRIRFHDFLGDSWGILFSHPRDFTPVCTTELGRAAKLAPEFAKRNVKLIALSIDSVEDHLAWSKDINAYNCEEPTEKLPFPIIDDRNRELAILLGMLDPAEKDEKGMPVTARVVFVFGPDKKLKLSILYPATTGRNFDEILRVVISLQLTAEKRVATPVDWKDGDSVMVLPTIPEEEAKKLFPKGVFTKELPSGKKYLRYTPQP

[4] = target: proteins of HEK293T cells transiently overexpressing caspase-6 (Homo sapiens, UniProt P63104); details: Comp; protein YWHAZ P63104
[5] = target: proteins of HEK293T cells transiently overexpressing caspase-6 (Homo sapiens, UniProt P60900); details: Comp; protein PSMA6 P60900
[6] = target: T3, proteins of HEK293T cells transiently overexpressing caspase-6 (Homo sapiens, UniProt P08243)
T3 sequence (P08243 1-561): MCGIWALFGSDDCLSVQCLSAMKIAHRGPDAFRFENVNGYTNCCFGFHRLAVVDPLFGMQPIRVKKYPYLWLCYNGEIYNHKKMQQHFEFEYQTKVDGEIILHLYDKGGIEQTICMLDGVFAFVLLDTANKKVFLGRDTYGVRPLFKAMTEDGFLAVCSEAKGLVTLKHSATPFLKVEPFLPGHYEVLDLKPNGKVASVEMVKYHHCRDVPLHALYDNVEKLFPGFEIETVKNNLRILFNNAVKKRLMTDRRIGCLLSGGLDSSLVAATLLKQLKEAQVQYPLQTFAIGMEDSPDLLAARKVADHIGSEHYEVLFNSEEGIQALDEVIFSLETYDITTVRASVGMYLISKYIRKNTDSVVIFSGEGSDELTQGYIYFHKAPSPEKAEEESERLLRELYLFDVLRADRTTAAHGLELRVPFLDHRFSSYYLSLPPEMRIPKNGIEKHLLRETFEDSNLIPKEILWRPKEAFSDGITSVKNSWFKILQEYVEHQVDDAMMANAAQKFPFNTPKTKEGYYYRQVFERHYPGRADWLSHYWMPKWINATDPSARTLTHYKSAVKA

[7] = target: T4, proteins of HEK293T cells transiently overexpressing caspase-6 (Homo sapiens, UniProt P22234); details: Comp; protein PAICS P22234
T4 sequence (P22234 1-425): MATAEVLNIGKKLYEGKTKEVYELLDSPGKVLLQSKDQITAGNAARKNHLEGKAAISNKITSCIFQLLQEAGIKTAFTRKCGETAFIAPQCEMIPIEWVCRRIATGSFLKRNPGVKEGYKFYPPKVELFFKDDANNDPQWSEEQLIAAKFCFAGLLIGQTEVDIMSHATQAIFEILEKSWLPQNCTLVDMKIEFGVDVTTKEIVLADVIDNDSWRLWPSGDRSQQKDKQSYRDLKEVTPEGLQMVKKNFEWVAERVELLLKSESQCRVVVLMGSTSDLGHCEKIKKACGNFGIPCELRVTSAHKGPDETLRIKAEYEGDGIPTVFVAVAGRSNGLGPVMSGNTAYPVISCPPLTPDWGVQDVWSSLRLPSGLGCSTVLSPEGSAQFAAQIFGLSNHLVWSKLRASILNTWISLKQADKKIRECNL

[8] = target: proteins of HEK293T cells transiently overexpressing caspase-6 (Homo sapiens, UniProt P26641); details: Comp; protein EEF1G P26641
[9] = protein PDCD6IP (Q8WUM4), Exp Comp, analysis C6, p 0.5000, 2 peptides
[10] = protein ASNS (P08243), Exp Comp, analysis C6, p 0.1250, 4 peptides

Compound: C=CS(=O)(=O)N1C[C@H](C(=O)Nc2ccc(OC(F)(F)F)cc2)C[C@@H](c2ccccc2)C1 [3a]
- enrich.exp.med ([1]; Comp, protein PDCD6IP Q8WUM4): 1
- enrich.exp.med.lin [1, 9]: 2
- enrich.exp.med.log2 [1, 9]: 1
- enrich.exp.med [2]: 0.7591
- enrich.exp.med [3]: 0.6066
- enrich.exp.med [4]: 0.6236
- enrich.exp.med [5]: 0.7694
- enrich.exp.med ([6]; Comp, protein ASNS P08243): 1.12
- enrich.exp.med.lin [6, 10]: 2.174
- enrich.exp.med.log2 [6, 10]: 1.12
- enrich.exp.med [7]: 0.7148
- enrich.exp.med [8]: 0.7548
